In ChEMBL document CHEMBL5537162, “Development of Antibacterial Peptides with Membrane Disruption and Folate Pathway Inhibitory Activities against Methicillin-Resistant Staphylococcus aureus” (J Med Chem, 2024):
The source made the active and inactive calls. The calls are words filed in the database; no cut-off is given here.

Experiments:
[1] = system: Staphylococcus aureus; experiment: Antibacterial activity against methicillin-resistant Staphylococcus aureus 19498 assessed as bacterial growth inhibition incubated for 24 hrs by CLSI based micro-broth dilution assay; assay type: functional
[2] = system: Escherichia coli; experiment: Antibacterial activity against Escherichia coli assessed as bacterial growth inhibition incubated for 24 hrs by CLSI based micro-broth dilution assay; assay type: functional
[3] = system: Cell membrane; experiment: Disruption of membrane integrity in methicillin-resistant Staphylococcus aureus measured for 6 hrs by scanning electron microscopic analysis; assay type: cell membranes
[4] = system: Staphylococcus aureus; experiment: Antibacterial activity against methicillin-resistant Staphylococcus aureus 19423 assessed as bacterial growth inhibition incubated for 24 hrs by CLSI based micro-broth dilution assay; assay type: functional
[5] = system: Staphylococcus aureus; experiment: Antibacterial activity against methicillin-resistant Staphylococcus aureus 19047 assessed as bacterial growth inhibition incubated for 24 hrs by CLSI based micro-broth dilution assay; assay type: functional
[6] = system: Staphylococcus aureus; experiment: Antibacterial activity against methicillin-resistant Staphylococcus aureus 18858 assessed as bacterial growth inhibition incubated for 24 hrs by CLSI based micro-broth dilution assay; assay type: functional
[7] = system: Staphylococcus aureus; experiment: Antibacterial activity against methicillin-resistant Staphylococcus aureus 18466 assessed as bacterial growth inhibition incubated for 24 hrs by CLSI based micro-broth dilution assay; assay type: functional
[8] = system: Staphylococcus aureus; experiment: Antibacterial activity against methicillin-resistant Staphylococcus aureus 19167 assessed as bacterial growth inhibition incubated for 24 hrs by CLSI based micro-broth dilution assay; assay type: functional
[9] = system: Staphylococcus aureus; experiment: Antibacterial activity against Methicillin-resistant Staphylococcus aureus infected in ICR mouse skin infection model assessed as reduction in bacterial content at 40 mg/kg, sc measured upto 10 days; assay type: functional, organism-based; details: time <= 10.0 day
[10] = system: Staphylococcus aureus; experiment: Antibacterial activity against Staphylococcus aureus 29213 assessed as bacterial growth inhibition incubated for 24 hrs by CLSI based micro-broth dilution assay; assay type: functional
[11] = target: T1, Monofunctional C1-tetrahydrofolate synthase, mitochondrial (Homo sapiens) (UniProt Q6UB35); experiment: Inhibition of FTHFS (unknown origin) expressed in Escherichia coli BL21 (DE3) incubated for 10 mins by UV-spectrophotometer analysis
T1 sequence (whole entry): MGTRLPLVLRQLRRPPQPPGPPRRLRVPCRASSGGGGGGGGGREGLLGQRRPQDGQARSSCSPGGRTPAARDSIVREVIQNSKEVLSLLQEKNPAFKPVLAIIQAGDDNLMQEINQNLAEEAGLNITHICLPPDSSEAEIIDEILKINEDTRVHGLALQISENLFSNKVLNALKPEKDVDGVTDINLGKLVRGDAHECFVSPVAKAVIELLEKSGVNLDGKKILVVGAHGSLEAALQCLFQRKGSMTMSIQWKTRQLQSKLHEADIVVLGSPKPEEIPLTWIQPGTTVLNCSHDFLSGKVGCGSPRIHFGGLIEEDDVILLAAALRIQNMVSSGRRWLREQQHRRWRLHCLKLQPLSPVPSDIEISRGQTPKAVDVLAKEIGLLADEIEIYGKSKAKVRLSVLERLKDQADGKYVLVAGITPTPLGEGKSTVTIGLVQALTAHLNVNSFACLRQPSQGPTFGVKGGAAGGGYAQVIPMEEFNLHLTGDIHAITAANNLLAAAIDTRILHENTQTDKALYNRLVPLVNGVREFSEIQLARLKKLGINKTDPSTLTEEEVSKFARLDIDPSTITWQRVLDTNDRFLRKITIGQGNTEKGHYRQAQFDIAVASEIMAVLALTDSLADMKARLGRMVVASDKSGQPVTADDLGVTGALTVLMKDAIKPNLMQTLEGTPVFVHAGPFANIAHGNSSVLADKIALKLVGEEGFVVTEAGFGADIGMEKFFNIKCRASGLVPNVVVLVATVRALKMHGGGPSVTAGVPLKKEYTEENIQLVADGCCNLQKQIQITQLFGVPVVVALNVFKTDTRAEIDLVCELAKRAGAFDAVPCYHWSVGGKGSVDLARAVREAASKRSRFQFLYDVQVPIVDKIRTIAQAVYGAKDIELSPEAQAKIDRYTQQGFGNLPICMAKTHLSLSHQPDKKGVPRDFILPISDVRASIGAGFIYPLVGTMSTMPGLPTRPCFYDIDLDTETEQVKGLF

[12] = system: Staphylococcus aureus; experiment: Antibacterial activity against methicillin-resistant Staphylococcus aureus assessed as bacterial growth inhibition incubated for 24 hrs by CLSI based micro-broth dilution assay; assay type: functional
[13] = system: Staphylococcus aureus; experiment: Antibacterial activity against methicillin-resistant Staphylococcus aureus assessed as reduction in viable bacteria at 1 to 8 times MIC measured at 1 hr by time-kill assay; assay type: functional, organism-based
[14] = system: Staphylococcus aureus; experiment: Antibacterial activity against Methicillin-resistant Staphylococcus aureus infected in ICR mouse skin infection model assessed as reduction in inflammatory infiltration at 40 mg/kg, sc by H and E staining based microscopic analysis; assay type: functional, organism-based
[15] = Antiproliferative activity against HEK293T cells assessed as reduction in cell viability measured for 48 hrs by MTT assay; assay type: toxicity, cell-based, HEK-293T; details: human
[16] = system: Staphylococcus aureus; experiment: Drug resistance, ratio of MIC for methicillin-resistant Staphylococcus aureus after 7 days exposure to MIC for methicillin-resistant Staphylococcus aureus during first exposure; assay type: functional; details: time 7 day
[17] = system: Staphylococcus aureus; experiment: Drug resistance, ratio of MIC for methicillin-resistant Staphylococcus aureus after 3 days exposure to MIC for methicillin-resistant Staphylococcus aureus during first exposure; assay type: functional; details: time 3 day
[18] = system: Staphylococcus aureus; experiment: Antibacterial activity against Staphylococcus aureus assessed as reduction in bacterial growth in presence of PABA; assay type: functional, organism-based
[19] = system: Erythrocyte; experiment: (§1) Hemolytic activity in mouse RBC assessed as hemolysis incubated for 1 hrs by spectrophotometric analysis; assay type: toxicity, cell-based; details: erythrocyte, 1 h
[20] = as §1; assay type: toxicity, cell-based, Erythrocyte; details: mouse red blood cells (erythrocytes)
[21] = Stability in mouse blood plasma measured for 12 hrs by RP-HPLC analysis; assay type: ADME, cell-free; details: read-out: Stability
[22] = system: Staphylococcus aureus; experiment: Antibacterial activity against Staphylococcus aureus 25923 assessed as bacterial growth inhibition incubated for 24 hrs by CLSI based micro-broth dilution assay; assay type: functional
[23] = system: Staphylococcus aureus; experiment: Drug resistance, ratio of MIC for methicillin-resistant Staphylococcus aureus after 1 week exposure to MIC for methicillin-resistant Staphylococcus aureus during first exposure; assay type: functional; details: time 1 weeks
[24] = system: Staphylococcus aureus; experiment: Antibacterial activity against methicillin-resistant Staphylococcus aureus assessed as fold reduction in viable bacteria at 8 times MIC measured at 3 to 6 hrs by time-kill assay; assay type: functional, organism-based; details: time 3-6 hrs
[25] = system: Staphylococcus aureus; experiment: Antibacterial activity against Methicillin-resistant Staphylococcus aureus infected in ICR mouse skin infection model assessed as log reduction in bacterial count at 40 mg/kg, sc measured upto 10 days; assay type: functional; details: time <= 10 day
[26] = Hemolytic activity in mouse RBC assessed as hemolysis at 320 uM incubated for 1 hrs by spectrophotometric analysis relative to control; assay type: toxicity, cell-based, Erythrocyte; details: mouse red blood cells (erythrocytes), read-out: %max
[27] = system: Staphylococcus aureus; experiment: Antibacterial activity against methicillin-resistant Staphylococcus aureus assessed as fold reduction in viable bacteria at 1 to 8 times MIC measured at 3 hr by time-kill assay; assay type: functional
[28] = system: Porphyromonas gingivalis; experiment: Antibacterial activity against Porphyromonas gingivalis assessed as bacterial growth inhibition incubated for 24 hrs by CLSI based micro-broth dilution assay; assay type: functional
[29] = system: Pseudomonas aeruginosa; experiment: Antibacterial activity against Pseudomonas aeruginosa assessed as bacterial growth inhibition incubated for 24 hrs by CLSI based micro-broth dilution assay; assay type: functional
[30] = system: Staphylococcus aureus; experiment: Antibacterial activity against Staphylococcus aureus 6538 assessed as bacterial growth inhibition incubated for 24 hrs by CLSI based micro-broth dilution assay; assay type: functional

Substance	MIC [1] [µM]	MIC [2] [µM]	Activity [3]	MIC [4] [µM]	MIC [5] [µM]	MIC [6] [µM]	MIC [7] [µM]	MIC [8] [µM]	Activity [9]	MIC [10] [µM]	inhibition [11]	MIC [12] [µM]	Activity [13]	Activity [14]	IC50 at 48 h [15] [µM]	Ratio [16]	Ratio [17]	Activity [18]	HC10 [19] [µM]	HC50 at 1 h [20] [µM]	further results
H-LARVARRVIRFIRRAW-NH2	6	> 48	Active	6	3	3	6	6	Active	3	Active	3	Active	Active	> 320	100	50	Active	> 320	> 320	remaining at 12 h [21]: 20%; MIC [22]: 3 µM; Ratio [23]: 4; Activity [24]: Active; log(activity) [25]: 5.9; hemolysis at 1 h, 320 µM [26]: 8.58%; fold change (FC) [27]: ~300; MIC [28]: 12 µM; MIC [29]: > 48 µM; MIC [30]: 3 µM
H-RRRLARRLIFFIRRAW-NH2	3	> 48	Active	6	6	3	6	6	Active	3	Active	3	Active	Active	> 320	100	50	Active	> 320	> 320	remaining at 12 h [21]: 20%; MIC [22]: 3 µM; Ratio [23]: 8; Activity [24]: Active; log(activity) [25]: 5.8; hemolysis at 1 h, 320 µM [26]: 8.97%; fold change (FC) [27]: ~300; MIC [28]: 12 µM; MIC [29]: > 48 µM; MIC [30]: 3 µM
